Source: PMC9090738, “An anti-diabetic drug targets NEET (CISD) proteins through destabilization of their [2Fe-2S] clusters” (Communications Biology, 2022)
Each block holds one molecule with its values, some of them ahead of it.

Legend:
mNT (mitoNEET) = molecular target: T1, mNT (mitoNEET) (Homo sapiens, UniProt Q9NZ45); assay: isothermal titration calorimetry, one-site model; format: binding
T1 construct: gene CISD1; soluble cytosolic part, residues 33-108; pET-28a+, E. coli BL21-RIL, Ni-agarose and size exclusion; [2Fe-2S] holo form; homodimer
T1 sequence (Q9NZ45 33-108): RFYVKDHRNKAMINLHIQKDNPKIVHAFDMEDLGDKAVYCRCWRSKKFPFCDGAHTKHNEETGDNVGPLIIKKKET

NAF-1 = molecular target: T2, NAF-1 (Homo sapiens, UniProt Q8N5K1); assay: isothermal titration calorimetry, one-site model; format: binding
T2 construct: gene CISD2; soluble cytosolic part, residues 57-135; pET-28a+, E. coli BL21-RIL, Ni-agarose and size exclusion; [2Fe-2S] holo form; homodimer
T2 sequence (Q8N5K1 57-135): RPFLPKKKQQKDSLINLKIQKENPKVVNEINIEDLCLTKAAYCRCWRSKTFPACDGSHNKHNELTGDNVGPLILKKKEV

[1] = molecular target: the molecule itself; assay: crystal structure; co-crystallised with the small molecule M1 (3.3 mM, 5% DMSO), sitting drop, 32% PEG-3000, 100 mM Tris-HCl pH 8.0, 100 mM NaCl, 20 °C; two molecules (mNT) or two dimers (NAF-1) in the asymmetric unit

Kd (mNT (mitoNEET)): 5.93 ± 0.53 µM
Kd (NAF-1): 7.2 ± 0.99 µM
Molecule: O=C(Nc1scc(C2CCc3ccccc3C2)c1C(=O)O)c1ccccc1 (racemic) [M1]

B1: NAF-1 soluble part (residue 57-135) (domain or fragment, human, UniProt Q8N5K1 57-135, looked up)
chain: T2 sequence (Q8N5K1 57-135)
notes: NAF-1, human NEET protein encoded by CISD2, soluble part, residues 57-135; Each monomer carries a [2Fe-2S] cluster; Crystallised with the small molecule M1; source: Escherichia coli BL21-RIL, purified (Ni-agarose, size exclusion chromatography)
binding result [1]: binds

B2: mitoNEET soluble part (residue 33-108) (domain or fragment, human, UniProt Q9NZ45 33-108, looked up)
chain: T1 sequence (Q9NZ45 33-108)
notes: mitoNEET (mNT), human NEET protein, soluble part, residues 33-108; Each monomer carries a [2Fe-2S] cluster; Crystallised with the small molecule M1; also called mNT; source: Escherichia coli BL21-RIL, purified (Ni-agarose, size exclusion chromatography)
binding result [1]: binds
